Experimental findings from patent US20250084061A1, “SULFONYL FUNCTIONAL COMPOUND, METHODS AND USES THEREOF” (Hubei Biopesticide Engineering Research Centre, priority 2023, published 2025) are described below.

Structures are written as SMILES.

The first data set has as its system Heliothis armigera. Briefly: Insecticidal activity, artificial feed surface coating method. The class given is in vivo. Particulars: Helicoverpa armigera; 125 mg/L test solution; read-out: Insecticidal activity (mortality rate grade) Heliothis armigera. The method, then: (§1) The insecticidal activity of sulfonyl functional compounds in the above embodiments were tested for agricultural biological functions, and the targets of insecticidal activity were Heliothis armigera, Plutella xylostella and Aphiscraccivora.
(§2) Using Heliothis armigera and Plutella xylostella as target, the insecticidal activities of sulfonyl functional compounds were tested by conventional artificial feed surface coating method. 300 microliters of artificial feed and 20 microliters of test solution were added to each well of the 24-well cell culture plate. The test solution was used in different concentrations and repeated twice (Rep1 and Rep2). The concentrations of the test solution were 500 mg/L, 250 mg/L and 125 mg/L, respectively.
(§3) The insecticidal activity of sulfonyl functional compounds against Aphiscraccivora was tested by the method of dipping. Mother liquors were prepared by the sulfonyl functional compounds provided in the above embodiments dissolved in ethanol, respectively. 500 mg/L, 250 mg/L or 125 mg/L test solution could be prepared by diluting the different mother liquors with a liquor that contained 0.1 mL/L of emulgator (Tween-80). Every test solution was tested twice (Rep1 and Rep2). A blank control was set up, and the activity results were compared with the blank control. The mortality rate of 0˜30%, 30˜50%, 50-70%, 70˜90%, or 90˜100% could be orderly set as 0, 3, 5, 7, or 9.
As to `N#CCNC(=O)c1c[n+](CCCS(=O)(=O)O)ccc1C(F)(F)F` [Compound I-1], the mortality at 125 µg/mL fell in the range of 0 to 30%.
Regarding `N#CCNC(=O)c1c[n+](C/C=C/S(=O)(=O)O)ccc1C(F)(F)F` [Compound I-2], the mortality at 125 µg/mL fell in the range of 0 to 30%.
`N#CCNC(=O)c1c[n+](CCCCS(=O)(=O)O)ccc1C(F)(F)F` [Compound I-3]: the mortality at 125 µg/mL lay in the range of 0 to 30%.
Still for that read-out and setting: the same measure for `O=C(NCCc1ccc(OC(F)(F)F)cc1)c1c[n+](CCCS(=O)(=O)O)ccc1C(F)(F)F` [Compound I-4]: 0 to 30%; for `O=C(NCCc1ccc(OC(F)(F)F)cc1)c1c[n+](C/C=C/S(=O)(=O)O)ccc1C(F)(F)F` [Compound I-5]: 0 to 30%; for `O=C(NCCc1ccc(OC(F)(F)F)cc1)c1c[n+](CCCCS(=O)(=O)O)ccc1C(F)(F)F` [Compound I-6]: 0 to 30%.

The data set is the same for the next values; noted with them: Helicoverpa armigera; 250 mg/L test solution; read-out: Insecticidal activity (mortality rate grade) Heliothis armigera.
In the case of `N#CCNC(=O)c1c[n+](CCCS(=O)(=O)O)ccc1C(F)(F)F` [Compound I-1], the mortality at 250 µg/mL lay in the range of 0 to 30%.
Regarding `N#CCNC(=O)c1c[n+](C/C=C/S(=O)(=O)O)ccc1C(F)(F)F` [Compound I-2], the mortality at 250 µg/mL fell in the range of 30 to 50%.
For `N#CCNC(=O)c1c[n+](CCCCS(=O)(=O)O)ccc1C(F)(F)F` [Compound I-3], the mortality at 250 µg/mL lay in the range of 30 to 50%.
`O=C(NCCc1ccc(OC(F)(F)F)cc1)c1c[n+](CCCS(=O)(=O)O)ccc1C(F)(F)F` [Compound I-4]: the mortality at 250 µg/mL lay within 30 to 50%.
`O=C(NCCc1ccc(OC(F)(F)F)cc1)c1c[n+](C/C=C/S(=O)(=O)O)ccc1C(F)(F)F` [Compound I-5]: the mortality at 250 µg/mL fell in the range of 0 to 30%.
Turning to `O=C(NCCc1ccc(OC(F)(F)F)cc1)c1c[n+](CCCCS(=O)(=O)O)ccc1C(F)(F)F` [Compound I-6], the mortality at 250 µg/mL lay within 0 to 30%.

Still in this data set, the particulars now being: Helicoverpa armigera; 500 mg/L test solution; read-out: Insecticidal activity (mortality rate grade) Heliothis armigera.
With `N#CCNC(=O)c1c[n+](CCCS(=O)(=O)O)ccc1C(F)(F)F` [Compound I-1], the mortality at 500 µg/mL lay within 30 to 50%.
With `N#CCNC(=O)c1c[n+](C/C=C/S(=O)(=O)O)ccc1C(F)(F)F` [Compound I-2], the mortality at 500 µg/mL was 50 to 70%.
As to `N#CCNC(=O)c1c[n+](CCCCS(=O)(=O)O)ccc1C(F)(F)F` [Compound I-3], the mortality at 500 µg/mL is 30 to 50%.
As to `O=C(NCCc1ccc(OC(F)(F)F)cc1)c1c[n+](CCCS(=O)(=O)O)ccc1C(F)(F)F` [Compound I-4], the mortality at 500 µg/mL lay within 30 to 50%.
Same read-out and setting: the figure for `O=C(NCCc1ccc(OC(F)(F)F)cc1)c1c[n+](C/C=C/S(=O)(=O)O)ccc1C(F)(F)F` [Compound I-5] is 30 to 50%; for `O=C(NCCc1ccc(OC(F)(F)F)cc1)c1c[n+](CCCCS(=O)(=O)O)ccc1C(F)(F)F` [Compound I-6] it is 30 to 50%.

Another data set relates to Plutella xylostella. Described as above. In kind it is in vivo. Particulars: Plutella xylostella; 125 mg/L test solution; read-out: Insecticidal activity (mortality rate grade) Plutella xylostella. The method, then: as §1, §2, §3
Regarding `N#CCNC(=O)c1c[n+](CCCS(=O)(=O)O)ccc1C(F)(F)F` [Compound I-1], the mortality at 125 µg/mL was in the range of 0 to 30%.
For the compound `N#CCNC(=O)c1c[n+](C/C=C/S(=O)(=O)O)ccc1C(F)(F)F` [Compound I-2], the mortality at 125 µg/mL was in the range of 0 to 30%.
Same read-out and setting: the figure for `N#CCNC(=O)c1c[n+](CCCCS(=O)(=O)O)ccc1C(F)(F)F` [Compound I-3] is 30 to 50%.
As for `O=C(NCCc1ccc(OC(F)(F)F)cc1)c1c[n+](CCCS(=O)(=O)O)ccc1C(F)(F)F` [Compound I-4], the mortality at 125 µg/mL lay in the range of 0 to 30%.
Still for that read-out and setting: the figure for `O=C(NCCc1ccc(OC(F)(F)F)cc1)c1c[n+](C/C=C/S(=O)(=O)O)ccc1C(F)(F)F` [Compound I-5] is 30 to 50%.
The same measure, in the same setting: the figure for `O=C(NCCc1ccc(OC(F)(F)F)cc1)c1c[n+](CCCCS(=O)(=O)O)ccc1C(F)(F)F` [Compound I-6] is 0 to 30%.

The same data set, now with this note: Plutella xylostella; 250 mg/L test solution; read-out: Insecticidal activity (mortality rate grade) Plutella xylostella.
Turning to `N#CCNC(=O)c1c[n+](CCCS(=O)(=O)O)ccc1C(F)(F)F` [Compound I-1], the mortality at 250 µg/mL lay within 0 to 30%.
Still for that read-out and setting: the figure for `N#CCNC(=O)c1c[n+](C/C=C/S(=O)(=O)O)ccc1C(F)(F)F` [Compound I-2] is 30 to 50%; for `N#CCNC(=O)c1c[n+](CCCCS(=O)(=O)O)ccc1C(F)(F)F` [Compound I-3] it is 50 to 70%; for `O=C(NCCc1ccc(OC(F)(F)F)cc1)c1c[n+](CCCS(=O)(=O)O)ccc1C(F)(F)F` [Compound I-4] it is 30 to 50%.
The same measure, in the same setting: the same measure for `O=C(NCCc1ccc(OC(F)(F)F)cc1)c1c[n+](C/C=C/S(=O)(=O)O)ccc1C(F)(F)F` [Compound I-5]: 50 to 70%.
The same measure, in the same setting: the figure for `O=C(NCCc1ccc(OC(F)(F)F)cc1)c1c[n+](CCCCS(=O)(=O)O)ccc1C(F)(F)F` [Compound I-6] is 30 to 50%.

Staying with this data set, now noted: Plutella xylostella; 500 mg/L test solution; read-out: Insecticidal activity (mortality rate grade) Plutella xylostella.
In the case of `N#CCNC(=O)c1c[n+](CCCS(=O)(=O)O)ccc1C(F)(F)F` [Compound I-1], the mortality at 500 µg/mL was 50 to 70%.
Same read-out and setting: the figure for `N#CCNC(=O)c1c[n+](C/C=C/S(=O)(=O)O)ccc1C(F)(F)F` [Compound I-2] is 50 to 70%; for `N#CCNC(=O)c1c[n+](CCCCS(=O)(=O)O)ccc1C(F)(F)F` [Compound I-3] it is 50 to 70%.
Turning to `O=C(NCCc1ccc(OC(F)(F)F)cc1)c1c[n+](CCCS(=O)(=O)O)ccc1C(F)(F)F` [Compound I-4], the mortality at 500 µg/mL was in the range of 50 to 70%.
The same measure, in the same setting: the same measure for `O=C(NCCc1ccc(OC(F)(F)F)cc1)c1c[n+](C/C=C/S(=O)(=O)O)ccc1C(F)(F)F` [Compound I-5]: 50 to 70%; for `O=C(NCCc1ccc(OC(F)(F)F)cc1)c1c[n+](CCCCS(=O)(=O)O)ccc1C(F)(F)F` [Compound I-6]: 50 to 70%.

For a further data set, the system named is Aphiscraccivora. The data set is described as follows: Insecticidal activity, dipping method. In kind it is in vivo. Particulars: 125 mg/L test solution. The method, then: as §1, §3
With `N#CCNC(=O)c1c[n+](CCCS(=O)(=O)O)ccc1C(F)(F)F` [Compound I-1], the “Insecticidal activity (mortality rate grade) Aphiscraccivora” value (from here on “Insecticidal activity”) is on record as 5 (50-70%).
Same read-out and setting: the same measure for `N#CCNC(=O)c1c[n+](C/C=C/S(=O)(=O)O)ccc1C(F)(F)F` [Compound I-2]: 7 (70˜90%).
Still for that read-out and setting: the figure for `N#CCNC(=O)c1c[n+](CCCCS(=O)(=O)O)ccc1C(F)(F)F` [Compound I-3] is 7 (70˜90%); for `O=C(NCCc1ccc(OC(F)(F)F)cc1)c1c[n+](CCCS(=O)(=O)O)ccc1C(F)(F)F` [Compound I-4] it is 3 (30˜50%); for `O=C(NCCc1ccc(OC(F)(F)F)cc1)c1c[n+](C/C=C/S(=O)(=O)O)ccc1C(F)(F)F` [Compound I-5] it is 3 (30˜50%).
On to `O=C(NCCc1ccc(OC(F)(F)F)cc1)c1c[n+](CCCCS(=O)(=O)O)ccc1C(F)(F)F` [Compound I-6], for which the “Insecticidal activity” value is 5 (50-70%).

The same data set, now with this note: 250 mg/L test solution.
Regarding `N#CCNC(=O)c1c[n+](CCCS(=O)(=O)O)ccc1C(F)(F)F` [Compound I-1], the “Insecticidal activity” value is on record as 7 (70˜90%).
Still for that read-out and setting: the same measure for `N#CCNC(=O)c1c[n+](C/C=C/S(=O)(=O)O)ccc1C(F)(F)F` [Compound I-2]: 9 (90˜100%); for `N#CCNC(=O)c1c[n+](CCCCS(=O)(=O)O)ccc1C(F)(F)F` [Compound I-3]: 7 (70˜90%).
On the same count and under the same terms, the figure for `O=C(NCCc1ccc(OC(F)(F)F)cc1)c1c[n+](CCCS(=O)(=O)O)ccc1C(F)(F)F` [Compound I-4] is 5 (50-70%).
Still for that read-out and setting: the figure for `O=C(NCCc1ccc(OC(F)(F)F)cc1)c1c[n+](C/C=C/S(=O)(=O)O)ccc1C(F)(F)F` [Compound I-5] is 3 (30˜50%); for `O=C(NCCc1ccc(OC(F)(F)F)cc1)c1c[n+](CCCCS(=O)(=O)O)ccc1C(F)(F)F` [Compound I-6] it is 7 (70˜90%).

Still in this data set, the particulars now being: 500 mg/L test solution.
Regarding `N#CCNC(=O)c1c[n+](CCCS(=O)(=O)O)ccc1C(F)(F)F` [Compound I-1], the “Insecticidal activity” value is given as 9 (90˜100%).
The same measure, in the same setting: the same measure for `N#CCNC(=O)c1c[n+](C/C=C/S(=O)(=O)O)ccc1C(F)(F)F` [Compound I-2]: 9 (90˜100%); for `N#CCNC(=O)c1c[n+](CCCCS(=O)(=O)O)ccc1C(F)(F)F` [Compound I-3]: 9 (90˜100%); for `O=C(NCCc1ccc(OC(F)(F)F)cc1)c1c[n+](CCCS(=O)(=O)O)ccc1C(F)(F)F` [Compound I-4]: 7 (70˜90%).
Same read-out and setting: the figure for `O=C(NCCc1ccc(OC(F)(F)F)cc1)c1c[n+](C/C=C/S(=O)(=O)O)ccc1C(F)(F)F` [Compound I-5] is 7 (70˜90%); for `O=C(NCCc1ccc(OC(F)(F)F)cc1)c1c[n+](CCCCS(=O)(=O)O)ccc1C(F)(F)F` [Compound I-6] it is 7 (70˜90%).
